According to publication PMC11428593 (Antibiotics, 2024):
Converted amounts (≈) assume the structure as drawn.

Assays:
[1] = test system: MRSA USA300LAC; experiment: MIC by broth microdilution (CLSI); type: cell-based, Staphylococcus aureus; details: for MIC: Staphylococcus aureus, MRSA USA300LAC, MHB, 37 °C, 16 h, read-out: MIC
Method: The MIC values of the alkyl pyridinol derivatives against the S. aureus strain ATCC 25923, MRSA strains ATCC 33591, ATCC BAA-44, and USA300LAC, as well as the P. aeruginosa strain ATCC 27853, were determined by following the CLSI guidelines for the broth microdilution antibiotic sensitivity testing protocol. In brief, the overnight cultures were diluted into Mueller Hinton Broth (MHB) to a final inoculum concentration of 5 × 10^5 CFU/mL (O.D600nm = 0.00001) and dispensed into a 96-well polystyrene plate (Alkali Scientific, Fort Lauderdale, FL, USA). Alkyl pyridine compounds were diluted into inoculated MHB to the indicated concentrations from stock solutions that would allow for DMSO concentrations below 5%, resulting in a total volume of 200 μL per well. The plates were subsequently incubated at 37 °C for 16 h at 300 rpm. The MIC values, which are defined as the lowest compound concentration that inhibited growth, were determined from three biological replicates.

[2] = test system: S. aureus strain USA300LAC; experiment: Checkerboard assay with JC-01-074 (FIC index); type: cell-based, Staphylococcus aureus; details: MHB, 37 °C, 20 h, antibiotic combined with JC-01-074
Method: Therefore, we tested whether the membrane-disrupting effects of JC-01-074 could increase the sensitivity of the S. aureus strain USA300LAC to antibiotics of different classes; for instance, by facilitating their uptake into the cytoplasm. […] Antibiotic concentrations were prepared by the microbroth dilution in MHB based on their MIC values (Table 1) to obtain the final concentrations as outlined in the 96-well plate scheme for each antibiotic tested (Supplementary Figure S3). Overnight USA300LAC cultures were diluted to 5 × 10^5 CFU/mL in MHB, and the growth was recorded at 37 °C and 200 rpm for 20 h in the presence and absence of the indicated antibiotic.
FICs were calculated as the ratio of the MIC of the antimicrobial in combination with the MIC of the antimicrobial alone. Interactions were categorized as synergistic (<0.5), additive or no interaction (0.5–2), and antagonistic (>2). FICs were calculated from three biological replicates.
Following previous studies, the checkerboard assay was employed to determine whether JC-01-074 had synergistic effects in combination with members of different antibiotic classes. The indicated antibiotics tested in combination were first serially diluted two-fold in MHB on a longitudinal axis in a 96-well polystyrene plate. JC-01-074 was then serially diluted two-fold across the 96-well plate horizontal axis. The plates were inoculated with USA300LAC to a final inoculum concentration of 5 x10^5 CFU/mL (O.D.600nm = 0.0001) and incubated overnight at 37 °C for 20 h. The growth was measured at 600 nm in a Tecan 200 Infinite Pro microplate reader. The fractional inhibitory concentration was calculated as follows:FIC = MICJC-01-074 + antibiotics/[…]
The classification of interactions was based on the FIC index: interactions were categorized as synergistic (FIC ≤ 0.5), additive/no interaction (FIC 0.5–2.0), and antagonistic (FIC > 2.0).

Compound | MIC [1] [µg/mL] | interaction with JC-01-074 (sum of FIC values) [2] | MIC (1× MIC as used for microscopy) ([1]; USA300LAC, stated in figure legend) [µg/mL]
CC1(C)S[C@@H]2[C@H](NC(=O)[C@H](N)c3ccccc3)C(=O)N2[C@H]1C(=O)O [Ampicillin] | 2.33 (≈ 6.67 µM) | additive (additive/no interaction (FIC 0.5–2.0)) | –
O=C(N[C@H](CO)[C@H](O)c1ccc([N+](=O)[O-])cc1)C(Cl)Cl [Chloramphenicol] | 4 (≈ 12.4 µM) | – | –
O=C(O)c1cn(C2CC2)c2cc(N3CCNCC3)c(F)cc2c1=O [Ciprofloxacin] | – | antagonistic (antagonistic (FIC > 2.0)) | –
C[C@H]1c2cccc(O)c2C(=O)C2=C(O)[C@]3(O)C(=O)C(C(N)=O)=C(O)[C@@H](N(C)C)[C@@H]3[C@@H](O)[C@@H]21 [Doxycycline] | 0.125 (≈ 0.281 µM) | antagonistic (antagonistic (FIC > 2.0)) | –
CNC(C)C1CCC(N)C(OC2C(N)CC(N)C(OC3OCC(C)(O)C(NC)C3O)C2O)O1 (stereo not drawn) [Gentamycin] | 1 (≈ 2.09 µM) | additive (additive/no interaction (FIC 0.5–2.0)) | –
CCCCCCCCCC(=O)N[C@@H](Cc1c[nH]c2ccccc12)C(=O)N[C@H](CC(N)=O)C(=O)N[C@@H](CC(=O)O)C(=O)N[C@@H]1C(=O)NCC(=O)N[C@@H](CCCN)C(=O)N[C@@H](CC(=O)O)C(=O)N[C@H](C)C(=O)N[C@@H](CC(=O)O)C(=O)NCC(=O)N[C@H](CO)C(=O)N[C@@H]([C@H](C)CC(=O)O)C(=O)N[C@@H](CC(=O)c2ccccc2N)C(=O)O[C@@H]1C [daptomycin] | – | – | 4
